Experimental data from US8497270B2, “Macrocyclic integrase inhibitors” (Elanco Animal Health Ireland Limited, priority 2009, dated 2013).
pEC50, pIC50: −log10 of the molar value. Like-named read-outs stand apart in the source and are kept apart here.

Legend:
HIV-1 LAI (IIIB) = assay: Assay 3: inhibitory activity on HIV replication wild type in the presence of human serum; type: cell-based; conditions: Human immunodeficiency virus 1, IIIB, 96 h; in the presence of 50% human serum, 4 days, resazurin cell viability
Protocol: Assay 3—Inhibitory Activity on HIV Replication Wild Type in the Presence of Human Serum
For the Antiviral assay in the presence of 50% human serum MT-4-LTR-EGFP cells were infected with HIV-1 LAI (IIIB) at a MOI of 0.001 to 0.01 CCID50/cell in RPMI1640 medium. Following 1 h of incubation, cells were washed and plated into a 96-well plate containing serial dilutions of compound in the presence of 10% fetal calf serum (FCS), or 50% human serum. After 4 days incubation, the EC50 in the presence of 50% human serum (EC50/HS—see Table 1) was determined by a cell viability assay using resazurin (as described by Fields, R. D., and M. V. Lancaster (1993) Am. Biotechnol. Lab. 11:48-50).

[1] = tested on: HIV-1 site-directed mutant strain Q148R; assay: Assay 1: inhibitory activity on HIV replication, Q148R mutant (MT4-LTR-EGFP cells); type: cell-based; conditions: Human immunodeficiency virus 1, 72 h, read-out: Q148R EC50
Text: (§1) Assay 1—Inhibitory Activity on HIV Replication Wild Type, N155H Mutant, and Q148R Mutant
(§2) MT4-LTR-enhanced green fluorescent protein (EGFP) cells were obtained by transfecting MT4 cells with a selectable construct encompassing the coding sequences for the HIV LTR as a promoter for the expression of EGFP and subsequent selection of permanently transfected cells. MT4-cytomegalovirus (CMV)-EGFP cells were obtained by selection for permanently transformed MT4 cells with a CMV-EGFP reporter gene. Cell lines were maintained in RPMI 1640 medium supplemented with 10% heat-inactivated fetal calf serum, 2 mM L-glutamine, 0.1% NaHCO3, and antibiotics (0.02% gentamicin and 0.8% G418) and incubated in a humidified incubator with a 5% CO2 atmosphere at 37° C.
(§3) N155H and Q148R mutant Integrase coding sequences were constructed in the pUC19-5′HXB2D vector (XbaI-SalI fragment of pHXB2D), containing the HIV-1 clone HXB2D IN coding sequence, by using a QuikChange site-directed mutagenesis kit (Stratagene, La Jolla, Calif.) and high-performance liquid chromatography-purified primers (Genset Oligos, La Jolla, Calif.). Altered plasmid sequences were confirmed by dideoxyribose sequencing.
(§4) For generation of site directed mutant (SDM) virus stocks, MT4 cells were subcultured at a density of 250,000 cells/ml on the day before transfection. Cells were pelleted and resuspended in phosphate-buffered saline at a concentration of 3.1×10^6 cells/ml. A 0.8-ml portion ([…]) was used for each transfection. Transfections were performed with a Bio-Rad Gene Pulser (Bio-Rad, Hercules, Calif.) with 0.4-cm electrode cuvettes (Bio-Rad). Cells were electroporated with 10 μg of SalI-linearized pUC19-3′HXB2D (SalI-XbaI fragment of pHXB2D) and 5 μg of SalI-digested SDM at 250 μF and 300 V, followed by a 30-min incubation at room temperature. Ten milliliters of fresh culture medium was then added to the suspension of transfected cells, and incubation was performed at 37° C. in a humidified atmosphere with 5% CO2. Cell cultures were monitored for the appearance of cytopathic effect (CPE). At virus breakthrough (full CPE), culture supernatant was typically harvested by centrifugation at 8 to 10 days after transfection and was stored at −80° C. for subsequent drug susceptibility determination.
(§5) The antiviral activity of different inhibitors was determined in a cell-based HIV-1 replication assay. MT4-LTR-EGFP cells (150,000 cells/ml) were infected with HIV-1 (IIIB or site-directed mutant strains N155H or Q148R; multiplicity of infection [MOI] of 0.0025) in the presence or absence of inhibitor. After 3 days of incubation, the inhibition of HIV replication was quantified by measuring EGFP fluorescence, and expressed as the inhibitor concentration required for 50% inhibition of HIV-1 replication in cell culture (IIIB EC50—see Table 1).

HIV-1 IIIB = assay: Assay 1: inhibitory activity on HIV replication, wild type (MT4-LTR-EGFP cells); type: cell-based; conditions: Human immunodeficiency virus 1, 72 h, 3 days, EGFP fluorescence
Text: as §1, §2, §5

[2] = molecular target: recombinant HIV-1 integrase (Human immunodeficiency virus type 1 group M subtype B (isolate HXB2) (HIV-1), UniProt P04585); assay: Assay 4: 3dQ assay, inhibition of HIV integrase mediated 3'-processing; type: biochemical
Protocol: The inhibition of HIV integrase mediated 3′-processing was determined in a biochemical assay. For this a short (˜20 bp) double stranded U5 LTR substrate was generated by hybridization of 5 μM 5′-[…]-3′-alx488 (SEQ ID 1) with 7 μM dabcyl-5′-[…]-3′ (SEQ ID 2) in 10 mM Tris pH 8.0, 100 mM NaCl (heating to 95° C. and gradually cooling over 30′ to RT). Integrase inhibition was determined by incubation of 150 nM recombinant HIV-1 integrase, 100 nM recombinant LEDGF and 50 nM U5 LTR substrate in reaction buffer (25 mM MOPS pH7.2, 10 mM DTT, 10 mM MgCl2, 15 mM potassium glutamate and 2.5% DMSO) in the presence or absence of different concentrations test compounds. After 2 h at 37° C. reactions were stopped by adding ⅕ volumes of 0.5% SDS and fluorescence was measured (excitation at 488 nm, emission at 538 nm) and expressed as the inhibitor concentration required for 50% inhibition of the HIV integrase (IC50—see Table 1).

[3] = Assay 2: cellular cytotoxic activity; type: cell-based; conditions: human, mock-infected MT4-CMV-EGFP cells, EGFP fluorescence
Text: MT4-LTR-enhanced green fluorescent protein (EGFP) cells were obtained by transfecting MT4 cells with a selectable construct encompassing the coding sequences for the HIV LTR as a promoter for the expression of EGFP and subsequent selection of permanently transfected cells. MT4-cytomegalovirus (CMV)-EGFP cells were obtained by selection for permanently transformed MT4 cells with a CMV-EGFP reporter gene. Cell lines were maintained in RPMI 1640 medium supplemented with 10% heat-inactivated fetal calf serum, 2 mM L-glutamine, 0.1% NaHCO3, and antibiotics (0.02% gentamicin and 0.8% G418) and incubated in a humidified incubator with a 5% CO2 atmosphere at 37° C. Assay 2—Cellular Cytotoxic Activity The cytotoxicity of inhibitors was determined in parallel to the experiments under assay 1 on mock-infected MT4-CMV-EGFP cells (150,000 cells/ml) cultured in the presence or absence of different concentrations of compounds of formula I. After 3 days of incubation, inhibition of cell proliferation was quantified by measuring the EGFP fluorescence and expressed as the compound concentration that inhibits cell growth by 50% (CC50—see Table 1).

[4] = tested on: HIV-1 site-directed mutant strain N155H; assay: Assay 1: inhibitory activity on HIV replication, N155H mutant (MT4-LTR-EGFP cells); type: cell-based; conditions: Human immunodeficiency virus 1, 72 h, read-out: N155H EC50
Text: as §1, §2, §3, §4, §5

[5] = 3'-processing, 150 nM integrase, 100 nM LEDGF, 50 nM U5 LTR substrate, 2 h at 37° C., read-out: IC50

SMILES	pEC50 (HIV-1 LAI (IIIB))	pEC50 [1]	pEC50 (HIV-1 IIIB)	pIC50 [2, 5]	CC50 at 3 days [3] [nM]	pEC50 [4]	pIC50 [2]
O=C1NCCCCCCNc2nc(c(O)c3ncccc23)C(=O)NCc2ccc(F)cc21 [Compound 1]	7.46	6.46	7.77	6.02	20700	6.38	–
O=C1NCCCNc2nc(c(O)c3ncccc23)C(=O)NCc2ccc(F)cc21 [Compound 2]	–	4.44	5.05	–	61000	–	4.17
O=C1NCCCCNc2nc(c(O)c3ncccc23)C(=O)NCc2ccc(F)cc21 [Compound 3]	–	4.55	5.97	–	> 98000	–	–
O=C1NCCCCCNc2nc(c(O)c3ncccc23)C(=O)NCc2ccc(F)cc21 [Compound 4]	6.89	5.14	7.15	–	> 31000	5.72	–
O=C1NCCCCCCCNc2nc(c(O)c3ncccc23)C(=O)NCc2ccc(F)cc21 [Compound 5]	7.29	6.36	7.77	6.00	7700	6.41	–
CN1c2nc(c(O)c3ncccc23)C(=O)NCc2ccc(F)cc2C(=O)NCCCCCS1(=O)=O [Compound 6]	8.52	8.10	8.40	6.60	27700	7.08	–
CN1c2nc(c(O)c3ncccc23)C(=O)NCc2ccc(F)cc2C(=O)NCCCCS1(=O)=O [Compound 7]	8.52	7.70	8.40	6.44	13300	6.59	–
O=C1NCCCCN2CCN(CC2)c2nc(c(O)c3ncccc23)C(=O)NCc2ccc(F)cc21 [Compound 8]	7.74	6.07	7.74	5.92	3100	5.72	–
O=C1NCCCN2CCN(CC2)c2nc(c(O)c3ncccc23)C(=O)NCc2ccc(F)cc21 [Compound 9]	7.60	6.34	7.77	5.80	43000	5.82	–
O=C1NCc2ccc(F)cc2OCCCCC(=O)N2CCN(CC2)c2nc1c(O)c1ncccc21 [Compound 10]	7.57	7.41	8.52	–	> 24000	6.96	–
CN1c2nc(c(O)c3ncccc23)C(=O)NCc2ccc(F)cc2OCCCCS1(=O)=O [Compound 11]	7.80	7.62	8.30	–	> 24000	6.51	–
CN1c2nc(c(O)c3ncccc23)C(=O)NCc2ccc(F)cc2OCCCCCS1(=O)=O [Compound 12]	7.40	7.92	9.00	6.70	> 98000	6.77	–
